Among the data in patent publication US11266643B2, “Triaryl compounds for treatment of PD-L1 diseases” (CHEMOCENTRYX, INC., priority 2019, dated 2022) are IC50 values, retold here.

Bounds are passed on as bounds.

This assay concerns the target human PD-L1 (Homo sapiens (Human), UniProt Q9NZQ7). Put plainly: Enzyme-Linked Immunosorbent Assay (ELISA), PD-1/PD-L1 binding. A digest of the protocol: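 Plates coated with […] human PD-L1 overnight at 4° C, blocked, then 1:5 serial compound dilutions added with human PD-1 […] 0.31 μg/mL for 1 h at 37° C. Bound PD-1 detected with streptavidin-HRP and TMB (20 min, 37° C); absorbance read at 450 nm after H2SO4 stop.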
(In general: An ELISA detects its analyte on a solid surface through an enzyme-linked reagent.)

Setting [1] is: human PD-1/PD-L1 ELISA, plates coated with human PD-L1.
Setting [2] is: PD-1/PD-L1 ELISA, human PD-L1 coated plates, Table 1.
Setting [3] is: plate-coated human PD-L1, biotinylated Human PD-1, absorbance at 450 nm.

human PD-L1, sequence (Q9NZQ7 19-239): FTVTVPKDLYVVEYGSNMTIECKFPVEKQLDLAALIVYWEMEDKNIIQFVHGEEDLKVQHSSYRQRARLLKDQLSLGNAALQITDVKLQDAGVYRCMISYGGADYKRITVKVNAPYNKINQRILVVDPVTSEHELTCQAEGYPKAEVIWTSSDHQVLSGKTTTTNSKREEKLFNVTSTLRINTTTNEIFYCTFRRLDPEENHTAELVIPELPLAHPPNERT

Take `COc1cc(-c2cccc(-c3cccc(NC(=O)c4nn(C)c(=O)n(C)c4=O)c3C)c2C)cc(F)c1CN[C@@H]1CCOC[C@@H]1O` [Example 1.076]: under setting [1], the IC50 was below 10 nM.
For `COc1cc(-c2cccc(-c3cccc(NC(=O)c4cncn(C)c4=O)c3C)c2C)cc(F)c1CN[C@@H]1CNC(=O)C1` [Example 1.209], the IC50 under setting [2] is below 10 nM.
`COc1cc(-c2cccc(-c3cccc(NC(=O)c4cn(C)c(=O)n(C)c4=O)c3C)c2Cl)cc(F)c1CNC(C)(C)C(N)=O` [Example 2.085] returned an IC50 under setting [3] of 10 to 1000 nM.
`COc1cc(-c2cccc(-c3cccc(NC(=O)c4cccn(C)c4=O)c3C)c2C)cc(F)c1CN[C@@H]1CNC(=O)C1` [Example 1.171] registered an IC50 under setting [1] below 10 nM.
`COc1cc(-c2cccc(-c3cccc(NC(=O)c4cn(C)c(=O)n(C)c4=O)c3C)c2C)cc(F)c1CNCC[C@@H]1CCC(=O)N1` [Example 1.108] yielded an IC50 under setting [1] below 10 nM.
`COc1cc(-c2cccc(-c3cccc(NC(=O)c4cnc(C)[nH]c4=O)c3C)c2C)cc(F)c1CN1CC(C(=O)O)C1` [Example 1.272] yielded an IC50 under setting [2] of 10 to 1000 nM.
On to `COc1cc(-c2cccc(-c3cccc(NC(=O)c4cn(C)c(=O)n(C)c4=O)c3C)c2Cl)cc(F)c1CN[C@@H]1COC[C@@H]1O` [Example 2.094], for which the IC50 under setting [3] was below 10 nM.
On to `COc1cc(-c2cccc(-c3cccc(NC(=O)c4ccncn4)c3C)c2C)cc(F)c1CN1CC(C)(C(=O)O)C1` [Example 1.340], for which, under setting [2], the IC50 was below 10 nM.
Under setting [1], `COc1cc(-c2cccc(-c3cccc(NC(=O)c4cn(C)c(=O)n(C)c4=O)c3C)c2C)cc(F)c1CNCCN1CCCC1=O` [Example 1.118] came in with an IC50 below 10 nM.
For the molecule `COc1cc(-c2cccc(-c3cccc(NC(=O)c4cn(C)c(=O)n(C)c4=O)c3Cl)c2Cl)cc(F)c1CNCC(C)(C)C(N)=O` [Example 2.108], the IC50 under setting [3] is below 10 nM.
On to `COc1cc(-c2cccc(-c3cccc(NC(=O)c4cn(C)c(=O)n(C)c4=O)c3C)c2C)cc(F)c1CNC[C@H]1CCC(=O)N1` [Example 1.155], for which the IC50 under setting [1] is below 10 nM.
Molecule `COc1cc(-c2cccc(-c3cccc(NC(=O)c4ccnc(N)c4)c3C)c2C)cc(F)c1CNCCO` [Example 1.389] yielded an IC50 under setting [2] of 1000 to 10000 nM.
On the same count and under the same terms, as for `COc1cc(-c2cccc(-c3cccc(NC(=O)c4ccccn4)c3C)c2F)cc(F)c1CN1CC(C(=O)O)C1` [Example 1.348], the figure is 10 to 1000 nM.
`COc1cc(-c2cccc(-c3cccc(NC(=O)c4cn(C)c(=O)n(C)c4=O)c3C)c2Cl)cc(F)c1CN[C@H]1CCC[C@H]1O` [Example 2.053] returned a concentration for half-maximal inhibition (IC50) under setting [3] below 10 nM.
In turn, `COc1cc(-c2cccc(-c3cccc(Nc4nccc5nccnc45)c3C)c2Cl)cc(F)c1CN[C@@H]1CNC(=O)C1` [Example 1.024] registered an IC50 under setting [1] below 10 nM.
`COc1cc(-c2cccc(-c3cccc(NC(=O)C4CCCO4)c3C)c2C)cc(F)c1CN1CC(C(=O)O)C1` (stereo not drawn) [Example 1.341] registered a 50% inhibitory concentration (IC50) under setting [2] of 10 to 1000 nM.
`COc1cc(-c2cccc(-c3cccc(NC(=O)c4cn(C)c(=O)n(C)c4=O)c3C)c2C)cc(F)c1CNC(C)(C)CO` [Example 1.133] came in with a concentration for half-maximal inhibition (IC50) under setting [1] below 10 nM.
As for `COc1cc(-c2cccc(-c3cccc(NC(=O)c4cn(C)c(=O)n(C)c4=O)c3C)c2F)cc(F)c1CN[C@H]1CCOC[C@@H]1O` [Example 2.095], the IC50 under setting [3] was below 10 nM.
As for `COc1cc(-c2cccc(-c3cccc(NC(=O)C4CNCCO4)c3C)c2C)cc(F)c1CN` (stereo not drawn) [Example 1.323], the IC50 under setting [2] lay within 10 to 1000 nM.
Under setting [3], `COc1cc(-c2cccc(-c3cccc(Nc4nccc5nccnc45)c3C)c2Cl)cc(F)c1CNCC1(O)CC1` [Example 2.111] gave an IC50 below 10 nM.
For the molecule `COc1cc(-c2cccc(-c3cccc(Nc4nccc5c4C(=O)N(C)CC5)c3C)c2C)cc(F)c1CN1CC(C(=O)OC(C)C)C1` [Example 1.219], the IC50 under setting [2] lay in the range of 10 to 1000 nM.
`COc1cc(-c2cccc(-c3cccc(NC(=O)c4cn(C)c(=O)n(C)c4=O)c3C)c2Cl)cc(F)c1CN1CCC(C(=O)O)CC1` [Example 2.019] displayed an IC50 under setting [3] below 10 nM.
As for `COc1cc(-c2cccc(-c3cccc(NC(=O)c4cncn(C)c4=O)c3C)c2C)cc(F)c1CNC(C)(C)CO` [Example 1.151], under setting [1], the IC50 was below 10 nM.
`COc1cc(-c2cccc(-c3cccc(NC(=O)c4ccccn4)c3C)c2C)cc(F)c1CN1CCC[C@H](C(=O)O)C1` [Example 1.355]: under setting [2], the IC50 lay in the range of 10 to 1000 nM.
Turning to `COc1cc(-c2cccc(-c3cccc(NC(=O)c4c[nH]c(=O)n(C)c4=O)c3C)c2C)cc(F)c1CNCCN1CCCC1=O` [Example 1.131], the IC50 under setting [1] was below 10 nM.
Molecule `COc1cc(-c2cccc(-c3cccc(NC(=O)c4ccccn4)c3C)c2C)cc(F)c1CNCC(=O)O` [Example 1.385] showed an IC50 under setting [2] of 10 to 1000 nM.
On the same count and under the same terms, then `COc1cc(-c2cccc(-c3cccc(Nc4nccn5ccnc45)c3C)c2C)cc(F)c1CN1CC(C(=O)O)C1` [Example 1.249], with 10 to 1000 nM.
Same read-out and setting: then `COc1cc(-c2cccc(-c3cccc(NC(=O)c4cccn(CC(N)=O)c4=O)c3C)c2C)cc(F)c1CN` [Example 1.288], with 10 to 1000 nM.
In turn, `COc1cc(-c2cccc(-c3cccc(NC(=O)c4cn(C)c(=O)n(C)c4=O)c3C)c2Cl)cc(F)c1CN[C@@H]1CCCOC1` [Example 2.067] registered an IC50 under setting [3] below 10 nM.
In the case of `COc1cc(-c2cccc(-c3cccc(NC(=O)c4cn(C)c(=O)n(C)c4=O)c3C)c2C)cc(F)c1CN[C@@H]1CNC(=O)C1` [Example 1.188], under setting [1], the concentration for half-maximal inhibition (IC50) is below 10 nM.
Molecule `COc1cc(-c2cccc(-c3cccc(NC(=O)c4ccccn4)c3C)c2C)cc(F)c1CN1CCC(C(=O)O)CC1` [Example 1.358] registered a half-maximal inhibitory concentration (IC50) under setting [2] of 10 to 1000 nM.
`COc1cc(-c2cccc(-c3cccc(NC(=O)c4ccccn4)c3C)c2C)cc(F)c1CN1CCOC[C@@H]1CO` [Example 1.372]: under setting [2], the IC50 was 10 to 1000 nM.
The molecule `COc1cc(-c2cccc(-c3cccc(NC(=O)c4cncn(C)c4=O)c3C)c2C)cc(F)c1CN[C@H]1CNC(=O)C1` [Example 1.154] displayed a half-maximal inhibitory concentration (IC50) under setting [1] below 10 nM.
Turning to `COc1cc(-c2cccc(-c3cccc(NC(=O)c4cn(C)c(=O)n(C)c4=O)c3C)c2Cl)cc(F)c1CN[C@H]1COC[C@@H]1O` [Example 2.092], the IC50 under setting [3] is below 10 nM.
As for `COc1cc(-c2cccc(-c3cccc(NC(=O)c4cn(C)c(=O)n(C)c4=O)c3C)c2Cl)cc(F)c1CN[C@H]1CCC(=O)NC1` [Example 1.018], the IC50 under setting [1] was below 10 nM.
Turning to `COc1cc(-c2cccc(-c3cccc(NC(=O)c4cncn(C)c4=O)c3C)c2C)cc(F)c1CNCC1(O)CC1` [Example 1.140], under setting [1], the IC50 was below 10 nM.
In the case of `COc1cc(-c2cccc(-c3cccc(NC(=O)c4cncn(C)c4=O)c3C)c2C)cc(F)c1CNC[C@@H](C)O` [Example 1.203], the IC50 under setting [2] is below 10 nM.
The same measure, in the same setting: then `COc1cc(-c2cccc(-c3cccc(NC(=O)C4CCCNC4)c3C)c2C)cc(F)c1CN` (stereo not drawn) [Example 1.394], with 1000 to 10000 nM.
In turn, `COc1cc(-c2cccc(-c3cccc(NC(=O)c4cn(C)c(=O)n(C)c4=O)c3C)c2C)cc(F)c1CNC1CCNC(=O)C1` (stereo not drawn) [Example 1.093] had an IC50 under setting [1] below 10 nM.
Still for that read-out and setting: as for `COc1cc(-c2cccc(-c3cccc(NC(=O)c4c[nH]c(=O)n(C)c4=O)c3C)c2C)cc(F)c1CNCCC(N)=O` [Example 1.128], the figure is below 10 nM.
For `COc1cc(-c2cccc(-c3cccc(NC(=O)c4nccs4)c3C)c2C)cc(F)c1CN1CC(C(=O)O)C1` [Example 1.346], the IC50 under setting [2] was 10 to 1000 nM.
Take `COc1cc(-c2cccc(-c3cccc(NC(=O)c4cn(C)c(=O)n(C)c4=O)c3C)c2C)cc(F)c1CN[C@H]1CCC[C@@H]1O` [Example 1.129]: the IC50 under setting [1] was below 10 nM.

For orientation: IC50 means the concentration needed to halve the response being measured. Higher therefore signals weaker potency in that assay.
